# Measurements as given in US20140051735A1, “USE OF N-PHENYLETHYLPYRAZOLE CARBOXAMIDE DERIVATIVES OR SALTS THEREOF FOR CONTROLLING POWDERY MILDEW PRIMARY INFECTIONS” (BAYER INTELLECTUAL PROPERTY GMBH, priority 2010, published 2014).
# Columns and labels:
# [1] = system: powdery mildew primary infections; assay: controlling powdery mildew primary infections in perennial crops after application prior to the end of the previous vegetative cycle; type: in vivo; details: in the year of the application and also in the year after
# [2] = system: powdery mildew species; details: on different crops; cited from earlier work
Compound,infection of new growing shoots and leaves [1],number of early infected shoots [1],efficacy against powdery mildew species [2]
"COC(c1ccc(Cl)cc1Cl)C(C)NC(=O)c1cn(C)nc1C(F)F (stereo not drawn) [3-difluoromethyl-1-methyl-1H-pyrazole-4-carboxylic acid [2-(2,4-dichlorophenyl)-2-methoxy-1-methyl-ethyl]-amide]",delayed,significantly reduced,
O=C(NCCc1ncc(C(F)(F)F)cc1Cl)c1ccccc1C(F)(F)F [fluopyram],,,high level of efficacy
